In patent publication US11319305B2, “Pyrimidine sulfamide derivative and preparation method and medical application thereof” (SHIJIAZHUANG SAGACITY NEW DRUG DEVELOPMENT CO., LTD., priority 2017, dated 2022):

Legend:
[1] = biological target: T1, human ETA receptor (Homo sapiens, UniProt P25101); experiment: In vitro antagonistic effect against human ETA receptor, Ca2+ signal in SK-N-MC cells; format: cell-based; conditions: for IC50: SK-N-MC cells, response to 1 nM endothelin-1; for ETA/ETB selectivity: ratio of ETB IC50 to ETA IC50
T1 construct: endogenously expressed human ETA receptors in SK-N-MC cells; host or cells: SK-N-MC cells
T1 sequence (P25101 21-427): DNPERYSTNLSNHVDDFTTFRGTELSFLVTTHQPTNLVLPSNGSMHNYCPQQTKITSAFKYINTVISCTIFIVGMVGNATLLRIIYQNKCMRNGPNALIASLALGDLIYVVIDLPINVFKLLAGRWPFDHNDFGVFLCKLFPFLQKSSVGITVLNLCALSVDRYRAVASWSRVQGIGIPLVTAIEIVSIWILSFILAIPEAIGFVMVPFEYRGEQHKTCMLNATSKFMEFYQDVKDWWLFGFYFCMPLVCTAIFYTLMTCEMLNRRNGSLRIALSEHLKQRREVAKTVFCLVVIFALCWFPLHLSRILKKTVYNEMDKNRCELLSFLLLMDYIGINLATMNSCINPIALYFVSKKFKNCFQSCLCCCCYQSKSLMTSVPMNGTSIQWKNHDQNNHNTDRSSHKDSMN
Protocol: Experimental Embodiment 1: In Vitro Test of Antagonistic Effect Against Human ETA Receptor
Antagonistic activity of the compounds against endogenously expressed human ETA receptors in SK-N-MC cells was evaluated by measuring the effect of compounds on the changes in cytoplasmic Ca^2+ ion signal induced by human ETA receptor agonists using fluorescence detection methods. The functional activity of the ETA receptor antagonistic effect was tested in Eurofins-Cerep SA according to current standard procedures.
1. Cells were suspended in Dulbecco's modified Eagle medium solution (DMEM, Invitrogen) supplemented with 1% FCSd, then distributed in 384-well plate (100 μL/well) at a density of 5×10^4 cells/well;
2. Probenecid in Hank's balanced salt solution (HBSS, Invitrogen) supplemented with 20 mM 4-(2-hydroxyethyl)piperazine-1-ethanesulfonic acid (Hepes, Invitrogen) (pH 7.4) was mixed with fluorescent probe (Fluo4 NW, Invitrogen), the mixture was added to each wells, then balanced with cells at 37° C. for 60 minutes, and then balanced with cells at 22° C. for 15 minutes;
(§1) 3. The test plate was placed in a microplate reader (CellLux, PerkinElmer), a DMSO solution or HBSS buffer with an appropriate concentration of the test compound and the positive control was added, and 1 nM endothelin-1 or HBSS buffer (base control) was added after 5 minutes, and then the change in fluorescence intensity proportional to the concentration of Ca^2+ ions of free […] was measured;
5. Standard positive control was BQ-123, several concentrations were tested in each experiments. The data was analyzed using Prism to generate a concentration-response curve, and IC50 values of the compounds were calculated.

[2] = biological target: T2, human ETB receptor (Homo sapiens, UniProt P24530); experiment: In vitro antagonistic effect against human ETB receptor, Ca2+ signal in transfected CHO cells; format: cell-based; conditions: response to 0.3 nM endothelin-1
T2 construct: host or cells: CHO cells
T2 sequence (P24530 27-442): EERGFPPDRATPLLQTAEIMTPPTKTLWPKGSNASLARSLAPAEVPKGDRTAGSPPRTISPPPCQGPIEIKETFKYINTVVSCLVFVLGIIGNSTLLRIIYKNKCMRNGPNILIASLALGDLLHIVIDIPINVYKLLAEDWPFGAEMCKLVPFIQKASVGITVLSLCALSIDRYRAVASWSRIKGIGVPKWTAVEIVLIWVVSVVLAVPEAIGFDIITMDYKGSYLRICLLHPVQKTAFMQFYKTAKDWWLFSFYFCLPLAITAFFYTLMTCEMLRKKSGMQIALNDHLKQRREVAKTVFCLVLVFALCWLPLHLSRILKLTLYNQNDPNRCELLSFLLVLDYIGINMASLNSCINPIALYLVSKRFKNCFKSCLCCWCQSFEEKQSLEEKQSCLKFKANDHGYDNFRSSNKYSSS
Protocol: Antagonist activity of the compound against human ETB receptors expressed in transfected CHO cells was evaluated by measuring the effect of the compound on the changes in the cytoplasmic Ca^2+ ion signal induced by human ETB receptor agonists. The functional activity of the ETB receptor antagonistic effect was tested in Eurofins-Cerep SA according to current standard procedures.
1. Cells were suspended in DMEM buffer (Invitrogen) and then distributed in 384-well plate (100 μL/well) at a density of 3×10^4 cells/well;
2. Probenecid in HBSS buffer (Invitrogen) supplemented with 20 mM Hepes (Invitrogen) (pH 7.4) was mixed with fluorescent probe (Fluo4 NW, Invitrogen), the mixture was added to each wells, then balanced with cells at 37° C. for 60 minutes, and then balanced with cells at 22° C. for 15 minutes;
as §1, with “and 0.3” for “and 1”
4. Results were shown as the percent inhibition of control response to 0.3 nM endothelin-1;
5. Standard positive control was BQ-788, several concentrations were tested in each experiments. The data was analyzed using Prism to generate a concentration-response curve, and IC50 values of the compounds were calculated.

[3] = biological target: T3, CYP1A2 (Homo sapiens, UniProt P05177); experiment: Human liver microsomal cytochrome P450 isozyme inhibition assay, CYP1A2; format: in vitro ADME; conditions: human liver microsomes
T3 construct: Mixed human liver microsomes (HLM) were purchased from Corning Inc; tissue Corning Inc; host or cells: pooled human liver microsomes
T3 sequence (P05177 1-516): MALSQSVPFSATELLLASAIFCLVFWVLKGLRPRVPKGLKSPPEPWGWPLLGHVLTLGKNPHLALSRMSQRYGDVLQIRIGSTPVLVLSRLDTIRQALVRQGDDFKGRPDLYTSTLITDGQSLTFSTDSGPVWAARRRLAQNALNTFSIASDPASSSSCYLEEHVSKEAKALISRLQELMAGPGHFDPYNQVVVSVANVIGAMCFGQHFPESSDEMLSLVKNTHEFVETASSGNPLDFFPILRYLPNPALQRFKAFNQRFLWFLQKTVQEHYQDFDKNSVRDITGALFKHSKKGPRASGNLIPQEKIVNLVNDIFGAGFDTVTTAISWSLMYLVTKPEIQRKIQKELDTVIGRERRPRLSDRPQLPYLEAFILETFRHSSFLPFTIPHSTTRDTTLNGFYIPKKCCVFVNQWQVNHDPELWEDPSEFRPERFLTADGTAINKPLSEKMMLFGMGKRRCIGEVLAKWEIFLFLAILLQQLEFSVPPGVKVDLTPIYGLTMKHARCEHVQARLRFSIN
Protocol: (§2) Experimental Embodiment 4: Human Liver Microsomal Cytochrome P450 Isozyme Inhibition Assay The purpose of the assay was to evaluate the inhibitory activity of the samples against human liver microsomal cytochrome P450 isozyme (CYP1A2, CYP2C9, CYP2C19, CYP2D6 and CYP3A4) using the 5-in-1 probe substrate of the CYP isozyme. Mixed human liver microsomes (HLM) were purchased from Corning Inc. (Steuben, N.Y., USA) and stored below −80° C. before use. The test compound working solution which has been diluted into serial concentrations was added to an incubation system containing human liver microsomes, probe substrates and circulating system cofactors, and a control containing solvent without the test compound was used as the enzyme activity control (100%). The concentration of the metabolite produced by the probe substrate in the sample was determined using a liquid chromatography-tandem mass spectrometry (LC-MS/MS) method. Nonlinear regression analysis was performed on the average percent activity versus concentration of subjects using SigmaPlot (V.11). The IC50 value was calculated by a three-parameter or four-parameter inverse-logarithmic equation.

[4] = biological target: T4, CYP2C9 (Homo sapiens, UniProt P11712); experiment: Human liver microsomal cytochrome P450 isozyme inhibition assay, CYP2C9; format: in vitro ADME; conditions: human liver microsomes
T4 construct: Mixed human liver microsomes (HLM) were purchased from Corning Inc; tissue Corning Inc; host or cells: pooled human liver microsomes
Protocol: as §2

[5] = biological target: T5, CYP2C19 (Homo sapiens, UniProt P33261); experiment: Human liver microsomal cytochrome P450 isozyme inhibition assay, CYP2C19; format: in vitro ADME; conditions: human liver microsomes
T5 construct: Mixed human liver microsomes (HLM) were purchased from Corning Inc; tissue Corning Inc; host or cells: pooled human liver microsomes
Protocol: as §2

[6] = biological target: T6, CYP2D6 (Homo sapiens, UniProt P10635); experiment: Human liver microsomal cytochrome P450 isozyme inhibition assay, CYP2D6; format: in vitro ADME; conditions: human liver microsomes
T6 construct: Mixed human liver microsomes (HLM) were purchased from Corning Inc; tissue Corning Inc; host or cells: pooled human liver microsomes
Protocol: as §2

[7] = biological target: T7, CYP3A4 (Homo sapiens, UniProt P08684); experiment: Human liver microsomal cytochrome P450 isozyme inhibition assay, CYP3A4; format: in vitro ADME; conditions: human liver microsomes
T7 construct: Mixed human liver microsomes (HLM) were purchased from Corning Inc; tissue Corning Inc; host or cells: pooled human liver microsomes
Protocol: as §2

[8] = system: human liver microsomal cytochrome P450 isozyme (CYP1A2, CYP2C9, CYP2C19, CYP2D6 and CYP3A4); experiment: Human liver microsomal cytochrome P450 isozyme inhibition assay, summary over the main isozymes; format: in vitro ADME
Protocol: as §2

T6 sequence (P10635 whole entry): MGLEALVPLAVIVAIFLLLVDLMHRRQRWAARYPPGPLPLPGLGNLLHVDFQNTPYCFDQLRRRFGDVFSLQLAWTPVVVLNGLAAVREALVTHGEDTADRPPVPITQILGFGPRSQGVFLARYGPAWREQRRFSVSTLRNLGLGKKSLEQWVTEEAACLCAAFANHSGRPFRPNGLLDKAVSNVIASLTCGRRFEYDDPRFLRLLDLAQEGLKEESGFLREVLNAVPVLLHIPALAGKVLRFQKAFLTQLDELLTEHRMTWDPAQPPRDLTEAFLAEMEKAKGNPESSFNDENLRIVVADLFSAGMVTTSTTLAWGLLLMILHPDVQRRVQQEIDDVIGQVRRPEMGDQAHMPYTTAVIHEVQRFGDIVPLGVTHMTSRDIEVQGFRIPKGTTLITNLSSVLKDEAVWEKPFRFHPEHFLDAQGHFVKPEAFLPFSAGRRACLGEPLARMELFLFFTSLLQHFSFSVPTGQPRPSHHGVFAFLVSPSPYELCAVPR
T4 sequence (P11712 whole entry): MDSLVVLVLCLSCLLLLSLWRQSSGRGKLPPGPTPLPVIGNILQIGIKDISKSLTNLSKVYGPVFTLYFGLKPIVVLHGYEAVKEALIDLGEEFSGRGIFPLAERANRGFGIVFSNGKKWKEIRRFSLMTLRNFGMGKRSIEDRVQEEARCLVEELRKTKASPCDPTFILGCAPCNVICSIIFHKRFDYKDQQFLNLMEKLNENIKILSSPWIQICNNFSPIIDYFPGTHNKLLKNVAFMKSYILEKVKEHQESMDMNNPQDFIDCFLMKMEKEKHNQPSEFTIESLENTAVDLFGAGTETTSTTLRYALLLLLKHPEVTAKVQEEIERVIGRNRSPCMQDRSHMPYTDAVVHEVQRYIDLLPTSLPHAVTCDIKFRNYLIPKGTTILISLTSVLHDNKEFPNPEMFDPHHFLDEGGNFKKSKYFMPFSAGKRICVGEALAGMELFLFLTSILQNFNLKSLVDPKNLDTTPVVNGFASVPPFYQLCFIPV
T7 sequence (P08684 whole entry): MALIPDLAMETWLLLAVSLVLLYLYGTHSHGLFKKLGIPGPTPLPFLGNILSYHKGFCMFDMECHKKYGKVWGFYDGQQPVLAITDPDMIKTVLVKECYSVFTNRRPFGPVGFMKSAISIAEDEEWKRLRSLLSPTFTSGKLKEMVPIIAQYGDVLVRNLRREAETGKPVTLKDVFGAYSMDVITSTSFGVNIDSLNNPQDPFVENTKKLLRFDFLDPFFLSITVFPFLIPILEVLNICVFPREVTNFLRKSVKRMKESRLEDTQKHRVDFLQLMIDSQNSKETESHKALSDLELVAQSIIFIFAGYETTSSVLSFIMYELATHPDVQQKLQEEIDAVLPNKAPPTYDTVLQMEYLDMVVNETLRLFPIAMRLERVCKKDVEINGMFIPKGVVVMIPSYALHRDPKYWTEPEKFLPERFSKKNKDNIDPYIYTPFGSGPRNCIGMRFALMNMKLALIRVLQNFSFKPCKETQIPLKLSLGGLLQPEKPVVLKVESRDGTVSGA
T5 sequence (P33261 whole entry): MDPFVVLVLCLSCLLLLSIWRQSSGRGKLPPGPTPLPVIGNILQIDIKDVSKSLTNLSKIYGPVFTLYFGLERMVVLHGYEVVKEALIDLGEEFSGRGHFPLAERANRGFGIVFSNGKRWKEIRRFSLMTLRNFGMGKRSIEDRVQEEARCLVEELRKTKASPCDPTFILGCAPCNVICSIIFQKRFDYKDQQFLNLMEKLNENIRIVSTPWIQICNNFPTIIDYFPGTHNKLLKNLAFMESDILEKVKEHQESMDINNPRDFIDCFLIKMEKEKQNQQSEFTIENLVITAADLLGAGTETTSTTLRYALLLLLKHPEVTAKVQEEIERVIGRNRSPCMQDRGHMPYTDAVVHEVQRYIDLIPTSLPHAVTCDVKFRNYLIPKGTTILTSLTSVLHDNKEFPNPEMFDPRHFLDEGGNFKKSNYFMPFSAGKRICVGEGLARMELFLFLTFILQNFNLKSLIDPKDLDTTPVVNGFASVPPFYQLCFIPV

Row | SMILES | IC50 [1] [µM] | ETA/ETB selectivity [1] | IC50 [2] [µM] | IC50 [3] [µM] | IC50 [4] [µM] | IC50 [5] [µM] | IC50 [6] [µM] | IC50 [7] [µM] | inhibitory effects on five main isozymes of CYP (in words) [8]
1 | O=S(=O)(NCC1CC1)Nc1ncnc(OCCOc2ncc(Br)cn2)c1-c1ccc2scnc2c1 [WX005] | 0.0014 | 78500 | 110 | > 50 | > 50 | > 50 | > 50 | > 50 | very weak
2 | CCCNS(=O)(=O)Nc1ncnc(OCCOc2ncc(Br)cn2)c1-c1ccc2ccnn2c1 [WX025] | 0.0031 | 19600 | 61 | > 50 | 35 | > 50 | > 50 | > 50 | very weak
